Reference: patent US20240254129A1, “HETEROCYCLIC COMPOUNDS AND USES THEREOF” (Kumquat Biosciences Inc., priority 2021, published 2024)
Where two headings read alike, the source gives them in different places.

Key:
[1] = biological target: GST-tagged K-Ras mutant / His-tagged hSOS1 (Homo sapiens, UniProt P01116); test: HTRF assay, K-Ras mutant / SOS1 interaction; type: binding; conditions: read-out: IC50 against mutant Kras
Summary of the method: (§1)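 Compounds, in duplicate at six concentrations from 10 μM to 0.01 μM, are added to GST-K-Ras premixed with anti-GST-Eu(K), then His-hSOS1 with anti-6His-XL665. After roughly 10 min, FRET is measured and the emission ratio is used to derive IC50.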

[2] = biological target: T1, wildtype Kras / hSOS1 (Homo sapiens, UniProt P01116); test: HTRF assay, wildtype Kras / SOS1 interaction; type: binding; conditions: read-out: IC50 against wildtype Kras
T1 construct: made in house; host or cells: E. coli BL21 (DE3)
Summary of the method: as §1

[3] = compound nos. 201-213, general methodology of example 5
[4] = compound nos. 102-196, general methodology of example 5

Chain of GST-tagged K-Ras mutant / His-tagged hSOS1 (P01116 whole entry G12D, form open): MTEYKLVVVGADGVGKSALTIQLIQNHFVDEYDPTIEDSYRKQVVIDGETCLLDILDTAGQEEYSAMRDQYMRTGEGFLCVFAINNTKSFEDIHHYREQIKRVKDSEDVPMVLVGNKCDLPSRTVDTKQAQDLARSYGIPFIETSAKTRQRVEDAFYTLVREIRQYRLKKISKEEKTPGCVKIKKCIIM
T1 sequence (P01116 1-188 isoform P01116-2): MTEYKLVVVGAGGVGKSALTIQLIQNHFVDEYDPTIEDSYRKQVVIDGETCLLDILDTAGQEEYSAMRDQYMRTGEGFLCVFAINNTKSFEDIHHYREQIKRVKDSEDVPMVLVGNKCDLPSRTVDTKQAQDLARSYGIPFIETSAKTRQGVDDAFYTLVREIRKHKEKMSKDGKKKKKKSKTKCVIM

IC50 ([1]; compound nos. 401-703) [nM] | IC50 ([2]; compound nos. 401-703) [nM] | Structure (SMILES) | further results
> 500 | > 500 | Nc1ccc2cccc(-c3c(Cl)cc4c(N5CC6CCC(C5)N6)nc(OCC56CCCN5CCC6)nc4c3F)c2n1 [Compound 597, 8-(4-(3,8-diazabicyclo-[3.2.1]octan-3-yl)-6-chloro-8-fluoro-2-((tetrahydro-1H-pyrrolizin-7a(5H)-yl)meth-oxy)quinazolin-7-yl)quin-olin-2-amine] | 
< 500 | > 500 | N#Cc1c(N)sc2c(F)ccc(-c3c(Cl)cc4c(N5CCCC6(CNC6)C5)nc(OC[C@@]56CCCN5C[C@H](F)C6)nc4c3F)c12 [Compound 526, 2-amino-4-(6-chloro-8-fluoro-2-(((2R,7aS)-2-fluorotetrahydro-1H-pyrrol-izin-7a(5H)-yl)methoxy)-4-(2,6-diazaspiro[3.5]nonan-6-yl)quinazolin-7-yl)-7-fluorobenzo[b]thiophene-3-carbonitrile] | 
 |  | Nc1nc2c(-c3c(Cl)cc4c(N5CC6CCC(C5)N6)nc(OC[C@@]56CCCN5C[C@H](F)C6)nc4c3F)cccc2o1 [Compound 204, 4-(4-((1R,5S)-3,8-diaza-bicyclo[3.2.1]octan-3-yl)-6-chloro-8-fluoro-2-(((2R,7aS)-2-fluorotetra-hydro-1H-pyrrolizin-7a(5H)-yl)methoxy)quin-azolin-7-yl)benzo[d]-oxazol-2-amine] | IC50 [1, 3]: < 1500 nM; IC50 [2, 3]: < 1500 nM
> 500 | > 500 | Fc1c(-c2ccccc2-c2ccccc2)c(Cl)cc2c(N3CCCCCC3)nc(OCC34CCCN3CCC4)nc12 [Compound 603, 7-([1,1′-biphenyl]-2-yl)-4-(azepan-1-yl)-6-chloro-8-fluoro-2-((tetrahydro-1H-pyrrolizin-7a(5H)-yl)meth-oxy)quinazoline] | 
< 500 | < 500 | Nc1nc2c(-c3c(Cl)cc4c(N5CCC[C@@H](O)CC5)nc(OC[C@@]56CCCN5C[C@H](F)C6)nc4c3F)ccc(F)c2s1 [Compound 480, (4R)-1-(7-(2-amino-7-fluorobenzo[d]thiazol-4-yl)-6-chloro-8-fluoro-2-(((2R,7aS)-2-fluorotetra-hydro-1H-pyrrolizin-7a(5H)-yl)methoxy)quinazolin-4-yl)azepan-4-ol] | 
 |  | CN1CCC[C@H]1COc1nc(N2CCNCC(F)(F)C2)c2cc(Cl)c(-c3cccc4nc(O)oc34)c(F)c2n1 [Compound 169, 7-(6-chloro-4-(6,6-difluoro-1,4-diazepan-1-yl)-8-fluoro-2-(((S)-1-methylpyrrolidin-2-yl)methoxy)quinazolin-7-yl)benzo[d]oxazol-2-ol] | IC50 [1, 4]: > 500 nM; IC50 [2, 4]: > 500 nM
> 500 | > 500 | CN1CCCC1CCn1nc(N2CC3CCC(C2)N3)c2ccc(-c3cc(O)cc4ccccc34)c(F)c2c1=O (stereo not shown) [Compound 529, 4-(3,8-diazabicyclo[3.2.1]-octan-3-yl)-8-fluoro-7-(3-hydroxynaphthalen-1-yl)-2-(2-(1-methylpyrrolidin-2-yl)ethyl)phthalazin-1(2H)-one] | 
> 500 | > 500 | Cc1ccc2cn[nH]c2c1-c1c(Cl)cc2c(N3CC4CCC(C3)N4)nc(OC[C@@]34CCCN3C[C@H](F)C4)nc2c1F [Compound 611, 4-(3,8-diazabicyclo[3.2.1]-octan-3-yl)-6-chloro-8-fluoro-2-(((2R,7aS)-2-fluorotetrahydro-1H-pyrrol-izin-7a(5H)-yl)methoxy)-7-(6-methyl-1H-indazol-7-yl)-quinazoline] | 
< 500 | > 500 | N#Cc1c(N)sc2c(F)ccc(-c3c(Cl)cc4c(N5CCCS(=O)(=O)CC5)nc(OC[C@@]56CCCN5C[C@H](F)C6)nc4c3F)c12 [Compound 574, 2-amino-4-(6-chloro-4-(1,1-dioxido-1,4-thiazepan-4-yl)-8-fluoro-2-(((2R,7aS)-2-fluorotetrahydro-1H-pyrrol-izin-7a(5H)-yl)methoxy)-quinazolin-7-yl)-7-fluoro-benzo[b]thiophene-3-carbonitrile] | 
 |  | Cc1ccnc(C(C)C)c1-n1c(=O)nc(N2CCNCC(F)(F)C2)c2cc(F)c(-c3cc(O)cc4ccccc34)nc21 [Compound 196, 4-(6,6-difluoro-1,4-diazepan-1-yl)-6-fluoro-7-(3-hydroxynaphthalen-1-yl)-1-(2-isopropyl-4-methyl-pyridin-3-yl)pyrido[2,3-d]-pyrimidin-2(1H)-one] | IC50 [1, 4]: > 500 nM; IC50 [2, 4]: > 500 nM
 |  | N#CCC1CNCCN(c2nc(OCC34CCCN3CCC4)nc3c(F)c(-c4ccc(F)c5sc(N)nc45)c(Cl)cc23)C1 (stereo not shown) [Compound 187, 2-(1-(7-(2-amino-7-fluoro-benzo[d]thiazol-4-yl)-6-chloro-8-fluoro-2-((tetra-hydro-1H-pyrrolizin-7a(5H)-yl)methoxy)quin-azolin-4-yl)-1,4-diazepan-6-yl)acetonitrile] | IC50 [1, 4]: < 500 nM; IC50 [2, 4]: < 500 nM
 |  | Nc1nc2c(-c3c(Cl)cc4c(N5CCNCC(F)(F)C5)nc(OCC56CCCN5C[C@H](F)C6)nc4c3F)cccc2s1 (stereo partly drawn) [Compound 120, 4-(6-chloro-4-(6,6-difluoro-1,4-diazepan-1-yl)-8-fluoro-2-(((2R)-2-fluorotetrahydro-1H-pyrrolizin-7a(5H)-yl)-methoxy)quinazolin-7-yl)-benzo[d]thiazol-2-amine] | IC50 [1, 4]: < 500 nM; IC50 [2, 4]: < 500 nM
 |  | CN1C[C@H](F)C[C@H]1COc1nc(N2CCNCC(F)(F)C2)c2cc(Cl)c(-c3cccc4sc(N)nc34)c(F)c2n1 [Compound 146, 4-(6-chloro-4-(6,6-difluoro-1,4-diazepan-1-yl)-8-fluoro-2-(((2S,4R)-4-fluoro-1-methylpyrrolidin-2-yl)meth-oxy)quinazolin-7-yl)benzo-[d]thiazol-2-amine] | IC50 [1, 4]: < 500 nM; IC50 [2, 4]: < 500 nM
< 500 | > 500 | Nc1nc2c(-c3c(Cl)cc4c(N5CCCCCC5)nc(OCC5(CN6CCCC6)CC5)nc4c3F)ccc(F)c2s1 [Compound 677, 4-(4-(azepan-1-yl)-6-chloro-8-fluoro-2-((1-(pyrrolidin-1-ylmethyl)cyclopropyl)meth-oxy)quinazolin-7-yl)-7-fluorobenzo[d]thiazol-2-amine] | 
< 500 | > 500 | N#Cc1c(N)sc2c(F)ccc(-c3c(Cl)cc4c(N5C[C@H]6CC[C@@H](C5)N6C5CCOCC5)nc(OC[C@@]56CCCN5C[C@H](F)C6)nc4c3F)c12 [Compound 679, 2-amino-4-(6-chloro-8-fluoro-2-(((2R,7aS)-2-fluorotetrahydro-1H-pyrrol-izin-7a(5H)-yl)methoxy)-4-((1R,5S)-8-(tetrahydro-2H-pyran-4-yl)-3,8-diaza-bicyclo[3.2.1]octan-3-yl)-quinazolin-7-yl)-7-fluoro-benzo[b]thiophene-3-carbonitrile] | 
> 500 | < 500 | Nc1nc2c(-c3c(Cl)cc4c(N5CC6CCC(C5)N6)nc(OCC5(CN6CCC(F)(F)C6)CC5)nc4c3F)ccc(F)c2s1 [Compound 411, 4-(4-(3,8-diazabicyclo-[3.2.1]octan-3-yl)-6-chloro-2-((1-((3,3-difluoropyrrol-idin-1-yl)methyl)cycloprop-yl)methoxy)-8-fluoroquin-azolin-7-yl)-7-fluorobenzo-[d]thiazol-2-amine] | 
> 500 | > 500 | COc1nc2c(N3C[C@H]4CC[C@@H](C3)N4)nc(OCC34CCCN3CCC4)nc2cc1-c1cc(O)cc2ccccc12 [Compound 545, 4-(4-((1R,5S)-3,8-diazabicyclo[3.2.1]octan-3-yl)-6-methoxy-2-((tetrahydro-1H-pyrrolizin-7a(5H)-yl)methoxy)pyrido[3,2-d]pyrimidin-7-yl)naphthalen-2-ol] | 
